Laboratory results from ChEMBL document CHEMBL3132760, “Investigating -secretase protein interactions in live cells using active site-directed clickable dual-photoaffinity probes” (Medchemcomm, 2014).

Target: Gamma-secretase
Assay: Inhibition of gamma-secretase (unknown origin) expressed in CHO cells expressing APP assessed as inhibition of amyloid beta 42 production
Assay type: cell-based, Homo sapiens

IC50 [nM] | Compound
12 | C#CCCCC(=O)Nc1ccc(C(=O)c2ccc(NC(=O)COCCOCCOCC(=O)NCCCCCNC(=O)[C@H](Cc3ccccc3)NC(=O)[C@H](CC(C)C)NC(=O)[C@H](Cc3ccccc3)C[C@@H](O)[C@H](Cc3ccccc3)NC(=O)OC(C)(C)C)cc2)cc1
23 | C#CCCCC(=O)Nc1ccc(C(=O)c2ccc(NC(=O)COCCOCCOCC(=O)NCCCOCCOCCOCCCNC(=O)[C@H](Cc3ccccc3)NC(=O)[C@H](CC(C)C)NC(=O)[C@H](Cc3ccccc3)C[C@@H](O)[C@H](Cc3ccccc3)NC(=O)OC(C)(C)C)cc2)cc1
180 | C#CCCCCNC(=O)[C@H](Cc1ccc(C(=O)c2ccccc2)cc1)NC(=O)[C@H](CC(C)C)NC(=O)[C@H](Cc1ccccc1)C[C@@H](O)[C@H](Cc1ccccc1)NC(=O)c1ccc(C(=O)c2ccccc2)cc1
1 | C#CCOc1ccc(C(=O)c2ccc(OCCOCCOCCNC(=O)[C@H](Cc3ccccc3)NC(=O)[C@H](CC(C)C)NC(=O)[C@H](Cc3ccccc3)C[C@@H](O)[C@H](Cc3ccccc3)NC(=O)OC(C)(C)C)cc2)cc1
> 1000 | C#CCCCCNC(=O)[C@H](Cc1ccccc1)NC(=O)[C@H](CC(C)C)NC(=O)[C@H](Cc1ccccc1)C[C@@H](O)[C@H](Cc1ccccc1)NC(=O)c1ccc(C(=O)c2ccccc2)cc1
20 | C#CCCCC(=O)Nc1ccc(C(=O)c2ccc(NC(=O)COCCOCCOCC(=O)NCCCOCCOCCOCCCNC(=O)[C@H](Cc3ccc(C(=O)c4ccccc4)cc3)NC(=O)[C@H](CC(C)C)NC(=O)[C@H](Cc3ccccc3)C[C@@H](O)[C@H](Cc3ccccc3)NC(=O)OC(C)(C)C)cc2)cc1
1.5 | C#CCOc1ccc(C(=O)c2ccc(OCCOCCOCCNC(=O)[C@H](Cc3ccc(C(=O)c4ccccc4)cc3)NC(=O)[C@H](CC(C)C)NC(=O)[C@H](Cc3ccccc3)C[C@@H](O)[C@H](Cc3ccccc3)NC(=O)OC(C)(C)C)cc2)cc1
33 | C#CCCCC(=O)Nc1ccc(C(=O)c2ccc(NC(=O)COCCOCCOCC(=O)NCCCCCNC(=O)[C@H](Cc3ccc(C(=O)c4ccccc4)cc3)NC(=O)[C@H](CC(C)C)NC(=O)[C@H](Cc3ccccc3)C[C@@H](O)[C@H](Cc3ccccc3)NC(=O)OC(C)(C)C)cc2)cc1
